Source: patent US4542141A, “Compound having vasodilating, antiaggregating and hypocholesterolemic activities, process for the preparation thereof and pharmaceutical compositions therefrom” (Edmond Pharma s.r.l., priority 1982, dated 1985)

Columns and labels:
[1] = system: platelet aggregation induced by adrenaline; assay: "Ex vivo" platelet antiaggregating action; type: in vivo, rabbits; settings: rabbit PRP, 35 mcg/ml adrenaline
Text: By this test, the effect of VQG 582, acetylsalicylic acid or sulfinpyrazone pretreatment of rabbits on the platelet aggregation induced on the PRP of these animals by 35 mcg/ml adrenaline, has been valued.

[2] = rat, in vivo
[3] = Hypocholesterolemic action in rats fed with Nath's diet; type: in vivo; settings: 200 mg/kg per os, 40 days
Description: 24 Hours after the last administration, the survived animals have been sacrificed and the dosage of total serum cholesterol, serum triglycerides, serum phospholipids and serum free fatty acids has been performed according to the methods described by Abell et al. (J. Biol. Chem., 195, 375, 1952), VAN HANDALL et al. (J. Lab. Clin. Med., 50, 152, 1957), MORRISON (Anal. Biochem., 7, 218, 1964), DOLE AND MEINERTZ (J. Biol. Chem., 235, 2595, 1960).
The livers were withdrawn and weighed, homogenized and extracted in soxhlet. The extracted lipids, evaporated, have been weighed and expresses as % of fresh organ.

[4] = Acute toxicity in the mouse (LD50, Probits method); settings: in vivo
Description: (§1) The study has been performed using whitish Swiss mice weighing about 20 g and Wistar rats, in the phase of weight increase, weighing about 150 g, of both sexes. The product has been administered to fasted animals (2 hours for mice and 18 hours for rats) by gastric tube (oral route) or intraperitoneal injection. Sulfipyrazone has been used as reference drug.
(§2) For the statistic calculation of LD50 and of the respective confidence limits for p=0.05, the Probits method was followed (Finney D. J.--Probit analysis-Cambridge Univ. Press, London and New York, 1952), taking into account the death rates in the 8 days following the treatments.

[5] = Acute toxicity in the rat (LD50, Probits method); settings: in vivo
Description: as §1, §2

[6] = system: cutaneous temperature of the paw; assay: Vasodilating action in the mouse (cutaneous temperature of the paw); type: in vivo, Swiss male whitish mice; settings: for mean variation of the cutaneous temperature in the 3h following the treatment: in °C (unit assumed)
Description: Swiss male whitish mice weighing about 20 g have been used. The cutaneous temperature of the paw has been measured, in conditioned room by means of a suitable thermometric equipment, (a) for three times, at 30 minutes intervals, before treatment (basal temperature), and (b) every 30 minutes in the three hours following the drugs treatment.

[7] = system: thrombocytopenia induced by Arthus reaction; assay: Inhibition of the thrombocytopenia induced by Arthus reaction in the guinea-pig; type: in vivo, guinea pigs; settings: guinea pig after antigenic reaction, 100 mg/kg os; for % inhibition: thrombocytopenia
Text: The method described by White and Butler (Thromb. Diath. Haemorr., 34, 533, 1975) has been used.

[8] = Pharmacokinetics in the rat by the oral route; settings: equimolar doses, compared with VQG 582
[9] = ip, intraperitoneal route, female
[10] = ip, intraperitoneal route, male

CC(=O)Oc1ccccc1C(=O)O [ASA, acetylsalicylic acid]
inhibition % ([1]; 50 mg/kg os): 30%
inhibition % ([1]; 75 mg/kg os): 70%
inhibition % ([1]; 100 mg/kg os): 100%

O=C(OCC1(CC[S+]([O-])c2ccccc2)C(=O)N(c2ccccc2)N(c2ccccc2)C1=O)c1cccnc1 (centres unmarked) [VQG 582, 1,2-diphenyl-4-[2-(phenylsulfinyl)-ethyl]-4-(nicotinoyloxymethyl)-pyrazolidine-3,5-dione]
pharmacological action after oral administration [2]: pharmacological action clearly delayed
blood concentrations expressed as sulfinpyrazone ([2]; po): prolongation of the blood concentrations expressed as sulfinpyrazone
metabolism ([2]; po): metabolized via an intermediate step, respectively to nicotinic acid and sulfinpyrazone
presence of unchanged compound in the plasma ([2]; po): found unchanged in the plasma 30 minutes to 1 hour after the treatment
% dead animals [3]: 10%
serum cholesterol [3]: 294.1 mg/100 ml
serum free fatty acids [3]: 0.31 mg/100 ml
serum phospholipids [3]: 157.1 mg/100 ml
serum triglycerides [3]: 113.8 mg/100 ml
liver lipids % ([3]; % of fresh organ): 16.0%
LD50 at 192 h [4, 9]: 3250 mg/kg
LD50 at 192 h [4, 10]: 3130 mg/kg
LD50 at 192 h ([4]; po, female): > 4000 mg/kg
LD50 at 192 h ([4]; po, male): > 4000 mg/kg
LD50 at 192 h [5, 9]: 2320 mg/kg
LD50 at 192 h [5, 10]: 2690 mg/kg
LD50 at 192 h ([5]; po, female): > 4000 mg/kg
LD50 at 192 h ([5]; po, male): > 4000 mg/kg
inhibition % ([1]; 40 mg/kg os): 15%
inhibition % ([1]; 80 mg/kg os): 70%
inhibition % ([1]; 120 mg/kg os): 85%
max. effect time ([6]; 100 mg/kg os): 60 min
mean variation of the cutaneous temperature in the 3h following the treatment ([6]; 100 mg/kg os): +0.60
N. platelets ± S.E. [7]: 218.5 10^3 /mm^3
% inhibition [7]: 70.2%

O=C(O)c1cccnc1 [nicotinic acid]
AUC ([2]; po): AUC superimposable to VQG 582
% dead animals [3]: 10%
serum cholesterol [3]: 324.3 mg/100 ml
serum free fatty acids [3]: 0.39 mg/100 ml
serum phospholipids [3]: 161.7 mg/100 ml
absorption [8]: faster absorption
max. effect time ([6]; 50 mg/kg os): 30 min
mean variation of the cutaneous temperature in the 3h following the treatment ([6]; 50 mg/kg os): +0.75

O=C1C(CC[S+]([O-])c2ccccc2)C(=O)N(c2ccccc2)N1c1ccccc1 (centres unmarked) [sulfinpyrazone, 1,2-diphenyl-4-[2-(phenylsulfinyl)ethyl]-pyrazoline-3,5-dione]
LD50 at 192 h [4, 9]: 159 mg/kg
LD50 at 192 h [4, 10]: 163 mg/kg
LD50 at 192 h ([4]; po, female): 335 mg/kg
LD50 at 192 h ([4]; po, male): 368 mg/kg
LD50 at 192 h [5, 9]: 157 mg/kg
LD50 at 192 h [5, 10]: 149 mg/kg
LD50 at 192 h ([5]; po, female): 390 mg/kg
LD50 at 192 h ([5]; po, male): 348 mg/kg
inhibition % ([1]; 40 mg/kg os): 5%
inhibition % ([1]; 80 mg/kg os): 30%
inhibition % ([1]; 120 mg/kg os): 70%
mean variation of the cutaneous temperature in the 3h following the treatment ([6]; 100 mg/kg os): +0.05
N. platelets ± S.E. [7]: 204.3 10^3 /mm^3
% inhibition [7]: 63.1%
